From patent US10059709B2, “Compounds” (Elanco Tiergesundheit AG, priority 2014, dated 2018)

Assays:
Format in all cases: biochemical
GST-JAK3(811-1124) = GST-JAK3(811-1124) (Homo sapiens (Human), UniProt P52333); experiment: Caliper mobility shift kinase assay, JAK3; conditions: JAK3tide 2 μM, ATP 80 or 18 μM, 60 minutes at 30° C.
Source text: (§1) Measurement of the Effect on the JAK Enzyme
(§2) All four kinases of the JAK/TYK-kinase family were used as purified recombinant GST-fusion proteins, containing the active kinase domains. GST-JAK1(866-1154), GST-JAK3(811-1124), and GST-TYK2(888-1187) were expressed and purified by affinity chromatography at the EPK biology unit.
(§3) The kinase assays were based on the Caliper mobility shift assay using the LabChip 3000 systems. This technology is similar to capillary electrophoresis and uses charge driven separation of substrate and product in a microfluidic chip.
(§4) All kinase reactions were performed in 384 well microtiter plates in a total reaction volume of
18 μI. The assay plates were prepared with 0.1 μI per well of test compound in the appropriate test concentration, as described under the section “preparation of compound dilutions”. The reactions were started by combining 9 μI of substrate mix (consisting of peptide and ATP) with 9 μI of kinase dilution. The reactions were incubated for 60 minutes at 30° C. and stopped by adding 70 μI of stop buffer (100 mM Hepes, 5% DMSO, 0.1% Coating reagent, 10 mM EDTA, 0.015% Brij 35).
Fluorescently labeled synthetic peptides were used as substrates in all reactions. A peptide derived from the sequence of IRS-1 (IRS-1 peptide, FITC-Ahx-[…]-NH2) was used for JAK1 and TYK2 and a peptide named JAK3tide (FITC-[…]-NH2) for JAK3. Specific assay conditions are described in Table 4:
(§5) The terminated reactions were transferred to the Caliper LabChip 3000 reader and the turnover of each reaction was measured by determining the substrate/product ratio.
(§6) Preparation of Compound Dilutions
(§7) Test compounds were dissolved in DMSO (10 mM) and transferred into 1.4 mL flatbottom or V-shaped Matrix tubes carrying a unique 2D matrix chip by individual compound hubs. The numbers of these chips were distinctively linked to the individual compound identification numbers. The stock solutions were stored at −20° C. if not used immediately. For the test procedure the vials were defrosted and identified by a scanner whereby a working sheet was generated that guided the subsequent working steps. Compound dilutions were made in 96 well plates. This format enabled the assay of maximally 40 individual test compounds at 8 concentrations (single points) including 4 reference compounds. The dilution protocol included the production of pre-dilution plates, master plates and assay plates:
(§8) Pre-dilution plates: 96 polypropylene well plates were used as pre-dilution plates. A total of 4 pre-dilution plates were prepared including 10 test compounds each on the plate positions A1-A10, one standard compound at A11 and one DMSO control at A12. All dilution steps were done on a HamiltonSTAR robot.
(§9) Master plates: 100 μI of individual compound dilutions including standard compound and controls of the 4 “pre-dilution plates” were transferred into a 384 “master plate” including the following concentrations 1′820, 564, 182, 54.6, 18.2, 5.46, 1.82 and 0.546 μM, respectively in 90% of DMSO.
Assay plates: Identical assay plates were then prepared by pipetting 100 nL of compound dilutions of the master plates into 384-well “assay plates”. In the following the compounds were mixed with 9 μI of assays components plus 9 μI enzyme corresponding to a 1:181 dilution steps enabling the final concentration of 10, 3.0, 1.0, 0.3, 0.1, 0.03, 0.01 and 0.003 μM, respectively. The preparation of the master plates were handled by the Matrix PlateMate Plus robot and replication of assay plates by the HummingBird robot.

GST-TYK2(888-1187) = GST-TYK2(888-1187) (Homo sapiens (Human), UniProt P29597); experiment: Caliper mobility shift kinase assay, TYK2; conditions: IRS-1 peptide 5 μM, ATP 30 μM, 60 minutes at 30° C.
Source text: as §1, §2, §3, §4
(§10) 18 μI. […] The reactions were started by combining 9 μI of substrate mix (consisting of peptide and ATP) with 9 μI of kinase dilution. The reactions were incubated for 60 minutes at 30° C. and stopped by adding 70 μI of stop buffer (100 mM Hepes, 5% DMSO, 0.1% Coating reagent, 10 mM EDTA, 0.015% Brij 35).
(§11) Fluorescently labeled synthetic peptides were used as substrates in all reactions. […] Specific assay conditions are described in Table 4:
as §5, §6, §7, §8, §9
(§12) Assay plates: Identical assay plates were then prepared by pipetting 100 nL of compound dilutions of the master plates into 384-well “assay plates”. […] The preparation of the master plates were handled by the Matrix PlateMate Plus robot and replication of assay plates by the HummingBird robot.

GST-JAK1(866-1154) = GST-JAK1(866-1154) (Homo sapiens (Human), UniProt P23458); experiment: Caliper mobility shift kinase assay, JAK1; conditions: IRS-1 peptide 5 μM, ATP 40 μM, 60 minutes at 30° C.
Source text: as §1, §2, §3, §4, §10, §11, §5, §6, §7, §8, §9, §12

GST-TYK2(888-1187), sequence (P29597 888-1187): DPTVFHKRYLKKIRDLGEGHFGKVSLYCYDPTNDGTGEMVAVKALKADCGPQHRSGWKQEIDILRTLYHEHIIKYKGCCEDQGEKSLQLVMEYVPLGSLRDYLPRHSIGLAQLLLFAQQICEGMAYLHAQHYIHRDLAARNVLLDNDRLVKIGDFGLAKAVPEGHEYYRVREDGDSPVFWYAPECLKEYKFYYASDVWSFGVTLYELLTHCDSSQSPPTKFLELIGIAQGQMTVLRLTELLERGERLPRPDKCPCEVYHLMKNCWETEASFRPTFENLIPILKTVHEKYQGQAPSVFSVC
GST-JAK1(866-1154), sequence (P23458 866-1154): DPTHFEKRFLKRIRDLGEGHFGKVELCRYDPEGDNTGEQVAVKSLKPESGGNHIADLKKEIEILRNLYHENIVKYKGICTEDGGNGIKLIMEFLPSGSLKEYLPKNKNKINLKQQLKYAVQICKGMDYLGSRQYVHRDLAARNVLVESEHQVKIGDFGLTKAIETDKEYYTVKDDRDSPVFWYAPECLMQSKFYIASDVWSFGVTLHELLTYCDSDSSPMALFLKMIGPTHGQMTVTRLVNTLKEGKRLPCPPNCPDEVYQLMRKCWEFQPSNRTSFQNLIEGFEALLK
GST-JAK3(811-1124), sequence (P52333 811-1124): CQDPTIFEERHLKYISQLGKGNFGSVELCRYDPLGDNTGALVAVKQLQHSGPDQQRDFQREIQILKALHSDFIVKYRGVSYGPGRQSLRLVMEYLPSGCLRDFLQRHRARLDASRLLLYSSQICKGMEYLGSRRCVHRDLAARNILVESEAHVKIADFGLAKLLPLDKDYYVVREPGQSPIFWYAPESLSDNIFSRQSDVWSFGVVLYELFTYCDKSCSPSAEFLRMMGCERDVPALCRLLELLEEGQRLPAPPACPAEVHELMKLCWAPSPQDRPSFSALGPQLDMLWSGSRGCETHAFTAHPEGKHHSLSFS

Row | Compound | IC50 (GST-JAK3(811-1124)) [µM] | IC50 (GST-TYK2(888-1187)) [µM] | IC50 (GST-JAK1(866-1154)) [µM]
1 | CNS(=O)(=O)C[C@H]1CC[C@H](Nc2ncnn3cccc23)CC1 [compound 15] | > 10 | > 10 | > 10
2 | CNS(=O)(=O)C[C@H]1CC[C@H](Nc2ccnc(N)n2)CC1 [compound 11] | > 10 | > 10 | > 10
3 | CNS(=O)(=O)C[C@H]1CC[C@H](N(C)c2cc(Cl)nc(N)n2)CC1 [compound 10] | > 10 | > 10 | > 10
4 | CNS(=O)(=O)C[C@H]1CC[C@H](Nc2c(C#N)cnc3sccc23)CC1 [compound 14] | > 10 | > 10 | > 10
5 | CNS(=O)(=O)C[C@H]1CC[C@H](N(C)c2c(C#N)cnc3sccc23)CC1 [compound 17] | > 10 | > 10 | > 10
6 | CNS(=O)(=O)C[C@H]1CC[C@H](Nc2nc(N)ncc2Br)CC1 [compound 13] | > 10 | 6 | 
7 | CNS(=O)(=O)C[C@H]1CC[C@H](N(C)c2c(C#N)cnn3cccc23)CC1 [compound 24] | > 10 | 8.5 | 0.93
8 | CNS(=O)(=O)C[C@H]1CC[C@H](N(C)c2nc(N)ncc2Br)CC1 [compound 7] | > 10 | > 10 | > 10
9 | CNS(=O)(=O)C[C@H]1CC[C@H](N(C)c2ncnn3cccc23)CC1 [compound 28] | > 10 | 3.2 | 0.55
10 | CNS(=O)(=O)C[C@H]1CC[C@H](Oc2ncnc3sccc23)CC1 [compound 19] | > 10 | > 10 | > 10
11 | CNS(=O)(=O)C[C@H]1CC[C@H](Nc2nc(N)ncc2-c2ccccc2)CC1 [compound 23] | > 10 | > 10 | > 10
12 | CNS(=O)(=O)C[C@H]1CC[C@H](N(C)c2ncnc3sccc23)CC1 [compound 9] | > 10 | > 10 | > 10
13 | CNS(=O)(=O)C[C@H]1CC[C@H](Oc2ncnn3cccc23)CC1 [compound 6] | > 10 | > 10 | > 10

Continued, values first:

Row | IC50 (GST-JAK3(811-1124)) [µM] | IC50 (GST-TYK2(888-1187)) [µM] | IC50 (GST-JAK1(866-1154)) [µM] | Compound
14 | > 10 | > 10 | > 10 | CNS(=O)(=O)C[C@H]1CC[C@H](Nc2nc(N)ncc2C)CC1 [compound 12]
15 | > 10 | > 10 | > 10 | CNS(=O)(=O)C[C@H]1CC[C@H](N(C)c2ccnc(N)n2)CC1 [compound 16]
16 | > 10 | > 10 | > 10 | CNS(=O)(=O)C[C@H]1CC[C@H](N(C)c2nc(N)ncc2-c2ccccc2)CC1 [compound 21]
17 | > 10 | > 10 | > 10 | CNS(=O)(=O)C[C@H]1CC[C@H](Oc2c(C#N)cnc3sccc23)CC1 [compound 20]
18 | > 10 | > 10 | > 10 | CNS(=O)(=O)C[C@H]1CC[C@H](N(C)c2ncnc3[nH]c(-c4ccccc4)nc23)CC1 [compound 4]
19 | > 10 | > 10 | > 10 | CNS(=O)(=O)C[C@H]1CC[C@H](Nc2ncnc3sccc23)CC1 [compound 8]
20 | > 10 | > 10 | > 10 | CNS(=O)(=O)C[C@H]1CC[C@H](N(C)c2ncnc3[nH]ncc23)CC1 [compound 3]
21 | > 10 |  | 1.8 | CNS(=O)(=O)C[C@H]1CC[C@H](Nc2c(C#N)cnn3cccc23)CC1 [compound 27]
22 | 7.93 |  |  | CNS(=O)(=O)C[C@H]1CC[C@H](N(C)c2ncnc3[nH]c(C)nc23)CC1 [compound 1]
23 | > 10 | > 10 | > 10 | CNS(=O)(=O)C[C@H]1CC[C@H](N(C)c2ncnc3[nH]c(Cc4ccccc4)nc23)CC1 [compound 5]
24 | 3.6 |  | 0.071 | CNS(=O)(=O)C[C@H]1CC[C@H](Oc2c([N+](=O)[O-])cnc3[nH]ccc23)CC1 [compound 25, N-methyl-1-[trans-4-[(5-nitro-1H-pyrrolo[2,3-b]pyridin-4-yl)oxy]cyclohexyl]methanesulfonamide]
25 | 0.26 | 0.13 | 0.01 | CNS(=O)(=O)C[C@H]1CC[C@H](n2cnc3cnc4[nH]ccc4c32)CC1 [compound 22, 1-[trans-4-(imidazo[4,5-d]pyrrolo[2,3-b]pyridin-1(6H)-yl)cyclohexyl]-N-methylmethanesulfonamide]
26 | 1.89 | 4.59 | 0.582 | CNS(=O)(=O)C[C@H]1CC[C@H](N(C)c2ncnc3[nH]cnc23)CC1 [compound 2, N-methyl-1-[trans-4-[methyl(9H-purin-6-yl)amino]cyclohexyl]methanesulfonamide]
27 | 1.2 | 0.39 |  | CNS(=O)(=O)C[C@H]1CC[C@H](N(C)c2c([N+](=O)[O-])cnc3[nH]ccc23)CC1 [compound 18]
28 | 3 | 0.84 | 0.034 | CNS(=O)(=O)C[C@H]1CC[C@H](N(C)c2c(C#N)cnc3[nH]ccc23)CC1 [compound 26, 1-[trans-4-[(5-cyano-1H-pyrrolo[2,3-b]pyridin-4-yl)-methyl-amino]cyclohexyl]-N-methyl-methanesulfonamide]
